Like-named read-outs stand apart in the source and are kept apart here. Marks after values point to notes of the source that are not given here.
Target: T1, F508delCFTR (Homo sapiens, UniProt P13569, DEL508-508)
T1 construct: expressed in transfected cells; host or cells: CFBE41o- human lung derived epithelial cells (CFBE41o-F508delCFTR-HRP), doxycycline-inducible
Assay: Cell Surface Expression-Horse Radish Peroxidase (CSE-HRP) Assay;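 on EC50 (with co-corrector): co-corrector chromenyl benzoic acid corrector at 2 or 3 µM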;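 on Maximum % activity (without co-corrector): % of on-plate positive control chromenyl benzoic acid corrector at 2 or 3 µM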
Format: cell-based
Details: for Emax: read-out: Maximum % activity (without co-corrector)
Summary of the method: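 Corrector compounds were given as 8-point 3-fold series from 20 or 30 μM, with or without a 2 μM co-corrector, for 18-24 h at 33 °C. Surface HRP was read by luminol luminescence as % of positive control; variable-Hill-slope sigmoidal fitting gave EC50 from triplicate plates.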

[1] = test compound alone, without co-corrector, read-out: EC50 (without co-corrector)
[2] = with co-corrector, maximum at any tested concentration
[3] = with co-corrector, read-out: EC50 (with co-corrector)
[4] = without co-corrector, maximum at any tested concentration
[5] = test compound with co-corrector, maximum at any tested concentration
[6] = test compound with co-corrector, read-out: EC50 (with co-corrector)
[7] = test compound without co-corrector, maximum at any tested concentration
[8] = test compound without co-corrector, read-out: EC50 (without co-corrector)

T1 sequence (P13569 with tags, fused parts or gaps DEL508-508): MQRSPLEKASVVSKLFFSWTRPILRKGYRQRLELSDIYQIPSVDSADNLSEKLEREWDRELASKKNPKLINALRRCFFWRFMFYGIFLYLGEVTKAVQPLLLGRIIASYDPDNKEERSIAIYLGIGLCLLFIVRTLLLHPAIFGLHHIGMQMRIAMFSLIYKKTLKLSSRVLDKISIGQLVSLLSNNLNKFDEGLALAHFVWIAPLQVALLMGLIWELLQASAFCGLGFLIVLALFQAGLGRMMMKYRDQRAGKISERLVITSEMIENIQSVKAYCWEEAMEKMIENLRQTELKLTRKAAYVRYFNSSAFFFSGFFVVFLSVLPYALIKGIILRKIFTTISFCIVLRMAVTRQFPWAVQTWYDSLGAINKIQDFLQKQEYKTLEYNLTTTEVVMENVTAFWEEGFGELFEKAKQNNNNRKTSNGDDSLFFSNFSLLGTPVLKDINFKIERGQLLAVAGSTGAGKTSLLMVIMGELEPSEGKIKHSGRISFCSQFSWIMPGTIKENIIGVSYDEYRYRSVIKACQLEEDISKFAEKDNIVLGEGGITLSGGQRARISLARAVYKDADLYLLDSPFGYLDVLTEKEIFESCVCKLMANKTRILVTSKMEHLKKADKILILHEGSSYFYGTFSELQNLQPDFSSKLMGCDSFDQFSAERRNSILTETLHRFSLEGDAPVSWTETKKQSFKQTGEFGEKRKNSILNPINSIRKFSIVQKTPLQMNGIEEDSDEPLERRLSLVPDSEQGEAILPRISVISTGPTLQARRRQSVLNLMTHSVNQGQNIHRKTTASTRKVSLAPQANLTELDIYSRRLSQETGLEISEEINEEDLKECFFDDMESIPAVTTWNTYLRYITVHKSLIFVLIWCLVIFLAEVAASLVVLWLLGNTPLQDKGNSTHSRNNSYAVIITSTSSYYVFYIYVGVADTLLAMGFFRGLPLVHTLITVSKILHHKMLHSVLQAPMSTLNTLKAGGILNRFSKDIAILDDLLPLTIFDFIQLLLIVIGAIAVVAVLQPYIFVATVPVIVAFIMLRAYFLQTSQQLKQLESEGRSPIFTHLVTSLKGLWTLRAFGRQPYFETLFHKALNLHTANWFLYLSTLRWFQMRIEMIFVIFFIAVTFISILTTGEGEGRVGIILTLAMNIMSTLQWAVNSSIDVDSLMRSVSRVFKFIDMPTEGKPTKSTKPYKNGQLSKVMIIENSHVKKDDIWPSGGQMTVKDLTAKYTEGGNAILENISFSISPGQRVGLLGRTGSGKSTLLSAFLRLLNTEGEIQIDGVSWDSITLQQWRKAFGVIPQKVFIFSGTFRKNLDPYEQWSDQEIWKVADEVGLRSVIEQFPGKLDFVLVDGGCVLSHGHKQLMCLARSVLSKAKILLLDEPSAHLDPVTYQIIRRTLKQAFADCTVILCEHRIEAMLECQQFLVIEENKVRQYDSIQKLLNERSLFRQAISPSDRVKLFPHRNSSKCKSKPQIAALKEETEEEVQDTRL

| Compound | EC50 [1] | Maximum % activity (with co-corrector) [2] | EC50 [3] | Emax [4] | Maximum % activity (with co-corrector) [5] | EC50 [6] | Emax [7] | EC50 [8] | Maximum % activity (without co-corrector) [4] | EC50 (without co-corrector) (test compound without co-corrector) |
| --- | --- | --- | --- | --- | --- | --- | --- | --- | --- | --- |
| O=C(NS(=O)(=O)c1cccc(Cl)c1)C1(c2ccc(Cl)cc2Cl)CC1 [Example III-26, N-(3-chlorobenzene-1-sulfonyl)-1-(2,4-dichlorophenyl)cyclopropane-1-carboxamide] | 3 to 10 µM | ++ (≥150 and <350) | 3 to 10 µM | < 50% | – | – | – | – | – | – |
| O=C(NS(=O)(=O)Cc1ccccc1)C1(c2ccc(Cl)c(Cl)c2)CC1 [Example III-115, 1-(3,4-dichlorophenyl)-N-(phenylmethanesulfonyl)cyclopropane-1-carboxamide] | > 10 µM | + (<150) | > 10 µM | < 50% | – | – | – | – | – | – |
| CC(C)c1nc(C(F)(F)F)ccc1C1(C(=O)NS(=O)(=O)c2cccc3c2CCCN3)CC1 [Example GI-9, 1-[2-(propan-2-yl)-6-(trifluoromethyl)pyridin-3-yl]-N-(1,2,3,4-tetrahydroquinoline-5-sulfonyl)cyclopropane-1-carboxamide] | < 3 µM | +++ (≥350) | < 3 µM | > 150% | – | – | – | – | – | – |
| O=C(NS(=O)(=O)c1cccc2ncccc12)C1(c2cc(Cl)cnc2N2CCCC2)CC1 [Example GI-35, 1-[5-chloro-2-(pyrrolidin-1-yl)pyridin-3-yl]-N-(quinoline-5-sulfonyl)cyclopropane-1-carboxamide] | – | – | – | – | +++ (≥350) | < 3 µM | > 150% | 3 to 10 µM | – | – |
| COc1cc(C2(C(=O)NS(=O)(=O)c3cccc4[nH]ccc34)CC2)c(OCC2CC2)cn1 [Example GI-95, 1-[5-(cyclopropylmethoxy)-2-methoxypyridin-4-yl]-N-(1H-indole-4-sulfonyl)cyclopropane-1-carboxamide] | – | – | – | – | +++ (≥350) | < 3 µM | > 150% | < 3 µM | – | – |
| COc1ncc(Cl)cc1C1(C(=O)NS(=O)(=O)c2cccc3ccccc23)CC1 [Example GI-3, 1-(5-chloro-2-methoxypyridin-3-yl)-N-(naphthalene-1-sulfonyl)cyclopropane-1-carboxamide] | < 3 µM | +++ (≥350) | < 3 µM | – | – | – | – | – | +++ (≥150) | – |
| O=C(NS(=O)(=O)c1cccc2[nH]ccc12)C1(c2cc(C3CCC3)cnc2OCC2CC2)CC1 [Example GI-98, 1-[5-cyclobutyl-2-(cyclopropylmethoxy)pyridin-3-yl]-N-(1H-indole-4-sulfonyl)cyclopropane-1-carboxamide] | – | – | – | – | +++ (≥350) | < 3 µM | > 150% | < 3 µM | – | – |
| O=C(NS(=O)(=O)c1ccc(Cl)cc1)C1(c2ccc(Cl)cc2Cl)CC1 [Example III-9, N-(4-chlorobenzene-1-sulfonyl)-1-(2,4-dichlorophenyl)cyclopropane-1-carboxamide] | > 10 µM | + (<150) | 3 to 10 µM | < 50% | – | – | – | – | – | – |
| CC(C)OC1CCN(c2ncc(C3CCC3)cc2C2(C(=O)NS(=O)(=O)c3cccc4[nH]ccc34)CC2)CC1 [Example GI-104, 1-(5-cyclobutyl-2-{4-[(propan-2-yl)oxy]piperidin-1-yl}pyridin-3-yl)-N-(1H-indole-4-sulfonyl)cyclopropane-1-carboxamide] | – | – | – | – | +++ (≥350) | < 3 µM | > 150% | < 3 µM | – | – |
| O=C(NS(=O)(=O)c1cccc2c1CCCN2)C1(c2cc(C3CCC3)cnc2N2CCCC2)CC1 [Example GI-31, 1-[5-cyclobutyl-2-(pyrrolidin-1-yl)pyridin-3-yl]-N-(1,2,3,4-tetrahydroquinoline-5-sulfonyl)cyclopropane-1-carboxamide] | – | – | – | – | +++ (≥350) | < 3 µM | > 150% | < 3 µM | – | – |
| COc1ccc(C2CCC2)cc1C1(C(=O)NS(=O)(=O)c2cccc3ccn(C)c23)CC1 [Example I-59, 1-(5-cyclobutyl-2-methoxyphenyl)-N-(1-methyl-1H-indole-7-sulfonyl)cyclopropane-1-carboxamide] | < 3 µM | +++ (≥350) | < 3 µM | > 150% | – | – | – | – | – | – |
| CCc1ccc(O[C@@H]2CCOC2)c(C2(C(=O)NS(=O)(=O)c3cccc4ncccc34)CC2)c1 [Example I-118, 1-(5-ethyl-2-{[(3R)-oxolan-3-yl]oxy}phenyl)-N-(quinoline-5-sulfonyl)cyclopropane-1-carboxamide] | < 3 µM | +++ (≥350) | < 3 µM | > 150% | – | – | – | – | – | – |
| CCOc1ccc(OC)c(C2(C(=O)NS(=O)(=O)c3cccc4nc(C)ccc34)CC2)c1 [Example I-69, 1-(5-ethoxy-2-methoxyphenyl)-N-(2-methylquinoline-5-sulfonyl)cyclopropane-1-carboxamide] | < 3 µM | +++ (≥350) | < 3 µM | > 150% | – | – | – | – | – | – |
| O=C(NS(=O)(=O)C(F)(F)F)C1(c2ccc(Cl)cc2Cl)CC1 [Example III-105, 1-(2,4-dichlorophenyl)-N-(trifluoromethanesulfonyl)cyclopropane-1-carboxamide] | > 10 µM | + (<150) | > 10 µM | < 50% | – | – | – | – | – | – |
| COc1nc2ccccc2cc1C1(C(=O)NS(=O)(=O)c2cccc3ncccc23)CC1 [Example I-76, 1-(2-methoxyquinolin-3-yl)-N-(quinoline-5-sulfonyl)cyclopropane-1-carboxamide] | 3 to 10 µM | +++ (≥350) | < 3 µM | > 150% | – | – | – | – | – | – |
| CCOc1ncc(C2CCC2)cc1C1(C(=O)NS(=O)(=O)c2cccc3ncccc23)CC1 [Example GI-114, 1-(5-cyclobutyl-2-ethoxypyridin-3-yl)-N-(quinoline-5-sulfonyl)cyclopropane-1-carboxamide] | – | – | – | – | +++ (≥350) | < 3 µM | > 150% | 3 to 10 µM | – | – |

The remaining lines, values ahead:

| EC50 [1] | Maximum % activity (with co-corrector) [2] | EC50 [3] | Emax [4] | Maximum % activity (with co-corrector) [5] | EC50 [6] | Emax [7] | EC50 [8] | Maximum % activity (without co-corrector) [4] | EC50 (without co-corrector) (test compound without co-corrector) | Compound |
| --- | --- | --- | --- | --- | --- | --- | --- | --- | --- | --- |
| 3 to 10 µM | +++ (≥350) | < 3 µM | > 150% | – | – | – | – | – | – | COc1ccc(C(C)C)cc1C1(C(=O)NS(=O)(=O)c2cccc3c2CCCN3)CCC1 [II-20] |
| – | – | – | – | +++ (≥350) | 3 to 10 µM | > 150% | 3 to 10 µM | – | – | COc1cnc(C2CC2)c(C2(C(=O)NS(=O)(=O)c3cccc4ncccc34)CC2)c1 [GII-15, 1-(2-cyclopropyl-5-methoxypyridin-3-yl)-N-(quinoline-5-sulfonyl)cyclopropane-1-carboxamide] |
| 3 to 10 µM | +++ (≥350) | 3 to 10 µM | > 150% | – | – | – | – | – | – | COc1cccc(-c2cnn(C)c2)c1C1(C(=O)NS(=O)(=O)c2cccc3ncccc23)CC1 [Example III-122, 1-[2-methoxy-6-(1-methyl-1H-pyrazol-4-yl)phenyl]-N-(quinoline-5-sulfonyl)cyclopropane-1-carboxamide] |
| – | – | – | – | ++ (≥150 and <350) | 3 to 10 µM | 50 to 150% | – | – | ++^a | COc1cc(OC(C)C)c(C2(C(=O)NS(=O)(=O)c3cccc4c3CCCN4)CC2)cn1 [GII-24, 1-{6-methoxy-4-[(propan-2-yl)oxy]pyridin-3-yl}-N-(1,2,3,4-tetrahydroquinoline-5-sulfonyl)cyclopropane-1-carboxamide] |
| < 3 µM | +++ (≥350) | < 3 µM | > 150% | – | – | – | – | – | – | COc1cc(C2CCC2)cc(OC)c1C1(C(=O)NS(=O)(=O)c2cccc3nc(N)ccc23)CC1 [II-70] |
| < 3 µM | +++ (≥350) | < 3 µM | > 150% | – | – | – | – | – | – | CCc1ccc(OC)c(C2(C(=O)NS(=O)(=O)c3cccc4[nH]ncc34)CC2)c1 [II-72] |
| – | – | – | – | + (<150) | > 10 µM | < 50% | > 10 µM | – | – | O=C(NS(=O)(=O)c1cccc2ncccc12)C1(c2cc(Cl)cnc2C(F)(F)F)CC1 [GIII-2] |
| 3 to 10 µM | +++ (≥350) | 3 to 10 µM | 50 to 150% | – | – | – | – | – | – | COc1ccc(OC2CCOC2)cc1C1(C(=O)NS(=O)(=O)c2cccc3ncccc23)CC1 (stereo not shown) [II-23] |
| < 3 µM | +++ (≥350) | < 3 µM | > 150% | – | – | – | – | – | – | COc1ccc(C(F)(F)F)cc1C1(C(=O)NS(=O)(=O)c2cccc3c2CCCN3)CC1 [II-28] |
| – | – | – | – | +++ (≥350) | 3 to 10 µM | > 150% | 3 to 10 µM | – | – | CCc1cnc(N2CCC(OC)CC2)c(C2(C(=O)NS(=O)(=O)c3cccc4[nH]ccc34)CC2)c1 [GII-58, 1-[5-ethyl-2-(4-methoxypiperidin-1-yl)pyridin-3-yl]-N-(1H-indole-4-sulfonyl)cyclopropane-1-carboxamide] |
| – | – | – | – | +++ (≥350) | 3 to 10 µM | 50 to 150% | 3 to 10 µM | – | – | COc1cc(C2(C(=O)NS(=O)(=O)c3cccc4c3CCCN4)CC2)c(Cl)cn1 [GII-7, 1-(5-chloro-2-methoxypyridin-4-yl)-N-(1,2,3,4-tetrahydroquinoline-5-sulfonyl)cyclopropane-1-carboxamide] |
| 3 to 10 µM | +++ (≥350) | < 3 µM | > 150% | – | – | – | – | – | – | COc1cc(C2(C(=O)NS(=O)(=O)c3cccc4[nH]ncc34)CC2)c(OCC(C)C)cn1 [II-91] |

From patent US10829473B2, “Modulators of the cystic fibrosis transmembrane conductance regulator protein and methods of use” (AbbVie Overseas S.Á.R.L., priority 2017, dated 2020)
